Patent publication US6737383B1, “Herbicidal oxadiazolidines” (priority 1999, dated 2004)

Columns and labels:
[1] = system: surinam grass; experiment: Test B pre/postemergence surinam grass; format: in vivo, Brachiaria decumbens
In short: (§1)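 Response is a visual 0-to-10 score relative to untreated plants, where 0 means no effect and 10 means complete control, taken twelve to sixteen days after application. Treatments went onto soil at planting and onto foliage of 1- to 4-leaf plants, using a surfactant-containing non-phytotoxic solvent.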

[2] = system: corn; experiment: Test B pre/postemergence corn; format: in vivo, Zea mays
In short: as §1

[3] = system: velvetleaf; experiment: Test B pre/postemergence velvetleaf; format: in vivo, Abutilon theophrasti
In short: as §1

[4] = system: sugar beet; experiment: Test B pre/postemergence sugar beet; format: in vivo, Beta vulgaris
In short: as §1

[5] = system: bamyardgrass; experiment: Test B flood test barnyardgrass; format: in vivo, Echinochloa crus-galli
In short: (§2)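 Flood test on plants grown to the 2-leaf stage; treated plants kept in greenhouse twelve to sixteen days, then visually rated against controls on a 0 (no effect) to 10 (complete control) scale.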

[6] = system: purple nutsedge; experiment: Test B pre/postemergence purple nutsedge; format: in vivo, Cyperus rotundus
In short: as §1

[7] = system: wild oat; experiment: Test B pre/postemergence wild oat; format: in vivo, Avena fatua
In short: as §1

[8] = system: crabgrass; experiment: Test B pre/postemergence crabgrass; format: in vivo, Digitaria sanguinalis
In short: as §1

[9] = system: blackgrass; experiment: Test B pre/postemergence blackgrass; format: in vivo, Alopecurus myosuroides
In short: as §1

[10] = system: wheat; experiment: Test B pre/postemergence wheat; format: in vivo, Triticum aestivum
In short: as §1

[11] = system: rape; experiment: Test B pre/postemergence rape; format: in vivo, Brassica napus
In short: as §1

[12] = system: giant foxtail; experiment: Test B pre/postemergence giant foxtail; format: in vivo, Setaria faberii
In short: as §1

[13] = system: rice; experiment: Test B flood test rice; format: in vivo, Oryza sativa
In short: as §2

[14] = system: duck salad; experiment: Test B flood test duck salad; format: in vivo, Heteranthera limosa
In short: as §2

[15] = system: smallflower flatsedge; experiment: Test B flood test smallflower flatsedge; format: in vivo, Cyperus difformis
In short: as §2

[16] = system: bedstraw; experiment: Test B pre/postemergence bedstraw; format: in vivo, Galium aparine
In short: as §1

[17] = Postemergence, Rate 62 g/ha, scale of 0 to 10, 0 is no effect, 10 is complete control
[18] = Postemergence, Rate 125 g/ha, scale 0 to 10, 0 is no effect, 10 is complete control
[19] = Postemergence, Rate 500 g/ha, scale 0 to 10, 0 is no effect, 10 is complete control
[20] = Preemergence, Rate 62 g/ha, scale of 0 to 10 where 0 is no effect and 10 is complete control
[21] = Preemergence, Rate 125 g/ha, scale 0 to 10, 0 is no effect, 10 is complete control
[22] = Preemergence, Rate 500 g/ha, scale of 0 to 10 where 0 is no effect and 10 is complete control
[23] = Rate 250 g/ha, Postemergence, scale of 0 to 10 where 0 is no effect and 10 is complete control
[24] = Rate 62 g/ha, flood test species, Pre-emergence, visual evaluation after twelve to sixteen days
[25] = Rate 125 g/ha, under heading Pre-emergence, flood test species, visual evaluation after twelve to sixteen days
[26] = Rate 250 g/ha, Pre-emergence (flood test species), scale 0 to 10, 0 is no effect, 10 is complete control
[27] = Rate 500 g/ha, Pre-emergence section of Table B, 0 to 10 scale (0 no effect, 10 complete control)

CC(C)N(C(=O)n1oc(=O)n(CCC2OCCCO2)c1=O)c1ccc(Cl)cc1 [Compound 532]
B. signalgrass plant response rating [1, 17]: 0
B. signalgrass plant response rating [1, 18]: 0
Plant response rating, B. signalgrass [1, 19]: 0
Plant response rating, B. signalgrass [1, 20]: 0
B. signalgrass plant response rating [1, 21]: 0
B. signalgrass plant response rating (0 to 10 scale, 0 is no effect, 10 is complete control) ([1]; Preemergence, Rate 250 g/ha): 0
B. signalgrass plant response rating [1, 22]: 0
Plant response rating, B. signalgrass [1, 23]: 0
Corn plant response rating [2, 17]: 2
Corn plant response rating [2, 18]: 0
Plant response rating, Corn [2, 19]: 2
Plant response rating, Corn [2, 20]: 0
Corn plant response rating [2, 21]: 0
Corn plant response rating (0 to 10 scale) ([2]; Preemergence, Rate 250 g/ha): 0
Corn plant response rating [2, 22]: 0
Plant response rating, Corn [2, 23]: 0
Velvetleaf plant response rating [3, 17]: 0
Velvetleaf plant response rating [3, 18]: 0
Plant response rating, Velvetleaf [3, 19]: 2
Plant response rating, Velvetleaf [3, 20]: 0
Velvetleaf plant response rating [3, 21]: 0
Velvetleaf plant response rating (0 to 10 scale) ([3]; Preemergence, Rate 250 g/ha): 0
Velvetleaf plant response rating [3, 22]: 4
Plant response rating, Velvetleaf [3, 23]: 2
Sugarbeets plant response rating [4, 17]: 0
Sugarbeets plant response rating [4, 18]: 0
Plant response rating, Sugarbeets [4, 19]: 0
Plant response rating, Sugarbeets [4, 20]: 0
Sugarbeets plant response rating [4, 21]: 2
Sugarbeets plant response rating (0 to 10 scale) ([4]; Preemergence, Rate 250 g/ha): 2
Sugarbeets plant response rating [4, 22]: 3
Plant response rating, Sugarbeets [4, 23]: 0
Plant response rating, Barnyardgrass (0 to 10 scale, 0 is no effect, 10 is complete control) [5, 24]: 0
Barnyardgrass plant response rating (0 to 10 scale, 0 is no effect, 10 is complete control) [5, 25]: 0
Barnyardgrass plant response rating [5, 26]: 9
Barnyardgrass plant response rating [5, 27]: 9
Nutsedge plant response rating [6, 17]: 4
Nutsedge plant response rating [6, 18]: 0
Plant response rating, Nutsedge [6, 20]: 0
Nutsedge plant response rating [6, 21]: 0
Nutsedge plant response rating (0 to 10 scale) ([6]; Preemergence, Rate 250 g/ha): 0
Nutsedge plant response rating [6, 22]: 0
Wild oats plant response rating [7, 17]: 0
Wild oats plant response rating [7, 18]: 0
Plant response rating, Wild oats [7, 19]: 0
Plant response rating, Wild oats [7, 20]: 0
Wild oats plant response rating [7, 21]: 0
Wild oats plant response rating (0 to 10 scale) ([7]; Preemergence, Rate 250 g/ha): 0
Wild oats plant response rating [7, 22]: 0
Plant response rating, Wild oats [7, 23]: 0
Crabgrass plant response rating [8, 17]: 4
Crabgrass plant response rating [8, 18]: 4
Plant response rating, Crabgrass [8, 19]: 9
Plant response rating, Crabgrass [8, 20]: 9
Crabgrass plant response rating [8, 21]: 9
Crabgrass plant response rating (0 to 10 scale) ([8]; Preemergence, Rate 250 g/ha): 10
Crabgrass plant response rating [8, 22]: 10
Plant response rating, Crabgrass [8, 23]: 7
Blackgrass plant response rating [9, 17]: 0
Blackgrass plant response rating [9, 18]: 0
Plant response rating, Blackgrass [9, 19]: 0
Plant response rating, Blackgrass [9, 20]: 0
Blackgrass plant response rating [9, 21]: 0
Blackgrass plant response rating (0 to 10 scale) ([9]; Preemergence, Rate 250 g/ha): 0
Blackgrass plant response rating [9, 22]: 0
Plant response rating, Blackgrass [9, 23]: 0
Wheat plant response rating [10, 17]: 0
Wheat plant response rating [10, 18]: 0
Plant response rating, Wheat [10, 19]: 0
Plant response rating, Wheat [10, 20]: 0
Wheat plant response rating [10, 21]: 0
Wheat plant response rating (0 to 10 scale) ([10]; Preemergence, Rate 250 g/ha): 0
Wheat plant response rating [10, 22]: 0
Plant response rating, Wheat [10, 23]: 0
Rape plant response rating [11, 17]: 0
Rape plant response rating [11, 18]: 0
Plant response rating, Rape [11, 19]: 2
Plant response rating, Rape [11, 20]: 0
Rape plant response rating [11, 21]: 0
Rape plant response rating (0 to 10 scale) ([11]; Preemergence, Rate 250 g/ha): 0
Rape plant response rating [11, 22]: 0
Plant response rating, Rape [11, 23]: 2
Giant foxtail plant response rating [12, 17]: 0
Giant foxtail plant response rating [12, 18]: 4
Plant response rating, Giant foxtail [12, 19]: 8
Plant response rating, Giant foxtail [12, 20]: 10
Giant foxtail plant response rating [12, 21]: 10
Giant foxtail plant response rating (0 to 10 scale) ([12]; Preemergence, Rate 250 g/ha): 10
Giant foxtail plant response rating [12, 22]: 10
Plant response rating, Giant foxtail [12, 23]: 4
Plant response rating, Rice (0 to 10 scale, 0 is no effect, 10 is complete control) [13, 24]: 0
Rice plant response rating (0 to 10 scale, 0 is no effect, 10 is complete control) [13, 25]: 1
Rice plant response rating [13, 26]: 9
Rice plant response rating [13, 27]: 8
Plant response rating, Ducksalad (0 to 10 scale, 0 is no effect, 10 is complete control) [14, 24]: 8
Ducksalad plant response rating (0 to 10 scale, 0 is no effect, 10 is complete control) [14, 25]: 8
Ducksalad plant response rating [14, 26]: 9
Ducksalad plant response rating [14, 27]: 9
Plant response rating, S. Flatsedge (0 to 10 scale, 0 is no effect, 10 is complete control) [15, 24]: 9
S. Flatsedge plant response rating (0 to 10 scale, 0 is no effect, 10 is complete control) [15, 25]: 8
S. Flatsedge plant response rating [15, 26]: 9
S. Flatsedge plant response rating [15, 27]: 9
Bedstraw plant response rating [16, 17]: 0
Bedstraw plant response rating [16, 18]: 0
Plant response rating, Bedstraw [16, 19]: 0
Plant response rating, Bedstraw [16, 20]: 0
Bedstraw plant response rating [16, 22]: 0
Plant response rating, Bedstraw [16, 23]: 0
